Assay [1] relates to IL-1β release in THP-1 cells. The assay is described as follows: IL-1β release assay. Type of assay: cell-based. The conditions noted are these: Homo sapiens; PMA-differentiated THP-1 cells, LPS + nigericin, cleaved IL-1β by JESS. How it is done: Approximately 1.5 million THP-1 cells were plated in each well of a 6-well TC plate and incubated with 40 nM PMA in RPMI (10% FBS, 1% Penstrep) for 24 hours. The media was then removed and cells were rested in RPMI (10% FBS, 1% Penstrep) for 24 hours after which time the media was removed and cells were pre-treated for 2 hours with various concentrations of compounds of interest (typically serial 3-fold dilution in RPMI+5% FBS, concentrations ranging from 1 μM to 0.5 nM) in RPMI (5% FBS). The media was again removed and cells were incubated with 250 ng/mL LPS and compounds of interest (concentrations as above) in RMPI (5% FBS) for 2 hours. The media was removed for a last time and cells were incubated with 20 μM nigericin and compounds of interest (concentrations as above) in Opti-MEM for 30 minutes. Cell media was then collected and the amount of cleaved IL-1β was determined using a JESS instrument (Protein Simple) and standard protocols. Cleaved Il-1β antibody was obtained from Cell Signaling (catalogue #83186S) and was used at 1:20 dilution in antibody diluent 2. Protein Simple 1× anti-Rabbit HRP secondary antibody was used along with Protein Simple luminol and peroxide for chemiluminescent detection. Primary antibody incubation time was increased from 30 minutes to 60 minutes.
(§1) Representative compounds were tested for inhibitory activity against NEK7 and IL-1β release according to the procedures described above.

In assay [2] the target is T1, full-length recombinant human NEK7 (Homo sapiens, UniProt Q8TDX7).
T1 construct: full-length recombinant human NEK7; GST (N); purchased SignalChem N09-10G; host or cells: Sf9 insect cells (baculovirus)
Kind of assay: NEK7 enzymatic assay. Type of assay: biochemical. The note with it: casein substrate, [32P]-ATP, radiometric P81 filter assay. How it is done: Casein substrate (from bovine milk, hydrolyzed and partially dephosphorylated mixture of α, β, and κ caseins, obtained from Sigma Aldrich, catalogue #C4765, diluted in distilled water to a final concentration of 1 mg/mL, assay concentration 20 μM) and full-length recombinant human NEK7 (expressed by baculovirus in Sf9 insect cells using a N-terminal GST tag, obtained from SignalChem, catalogue #N09-10G, […], assay concentration 70 nM) were mixed in assay buffer (20 mM Hepes pH 7.5, 10 mM MgCl2, 1 mM EGTA, 0.02% Brij35, 0.02 mg/mL BSA, 0.1 mM […], 2 mM DTT, 1% DMSO). Compounds of interest (in DMSO, serial 3-fold dilution from 10 μM to 0.5 nM) or control (1% DMSO) were dispensed into the kinase reaction mixture by Acoustic technology (Echo550; nanoliter range). After incubation at room temperature for 20 minutes, the kinase reaction was initiated by addition of [^32P]-ATP (Specific activity 10 μUCi/μl) and the mixture was incubated at room temperature for 2 hours. The reaction was then stopped by spotting the reaction mixture on strips of phosphocellulose P81 paper. Following washing, the radioactivity of the P81 paper was measured and kinase activity data were expressed as the percent remaining kinase activity in test samples compared to vehicle (dimethyl sulfoxide) reactions. IC50 values and curve fits were obtained using Prism (GraphPad Software).
as §1

T1 sequence (Q8TDX7 whole entry): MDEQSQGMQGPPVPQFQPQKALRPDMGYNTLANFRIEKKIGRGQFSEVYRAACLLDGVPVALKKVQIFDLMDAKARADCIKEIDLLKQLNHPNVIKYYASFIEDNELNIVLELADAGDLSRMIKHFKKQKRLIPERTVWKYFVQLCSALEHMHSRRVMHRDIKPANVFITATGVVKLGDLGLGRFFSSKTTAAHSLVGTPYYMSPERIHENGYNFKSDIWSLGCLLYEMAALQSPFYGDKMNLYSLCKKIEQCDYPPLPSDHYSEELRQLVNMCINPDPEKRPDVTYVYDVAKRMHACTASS

A word on the IC50: it is the concentration needed to halve the response being measured. As for `CN1CCN(Cc2ccc(NC(=O)Nc3ccc(Oc4ccnc5[nH]cc(Cl)c45)cc3F)cc2C(F)(F)F)CC1` [Example I-1, 1-(4-((3-chloro-1H-pyrrolo[2,3-b]pyridin-4-yl)oxy)-2-fluorophenyl)-3-(4-((4-methylpiperazin-1-yl)methyl)-3-(trifluoromethyl)phenyl)urea], the IC50 in assay [1] is below 0.05 µM. Take `CN1CCN(Cc2ccc(NC(=O)Nc3ccc(Oc4ccnc5[nH]cc(C6CC6)c45)cc3F)cc2C(F)(F)F)CC1` [Example I-7, 1-(4-((3-cyclopropyl-1H-pyrrolo[2,3-b]pyridin-4-yl)oxy)-2-fluorophenyl)-3-(4-((4-methylpiperazin-1-yl)methyl)-3-(trifluoromethyl)phenyl)urea]: the IC50 in assay [1] lay within 0.05 to 0.25 µM.

Consider `Cc1[nH]c2nccc(Oc3ccc(NC(=O)Nc4ccc(CN5CCN(C)CC5)c(C(F)(F)F)c4)c(F)c3)c2c1Cl` [Example I-11, 1-(4-((3-chloro-2-methyl-1H-pyrrolo[2,3-b]pyridin-4-yl)oxy)-2-fluorophenyl)-3-(4-((4-methylpiperazin-1-yl)methyl)-3-(trifluoromethyl)phenyl)urea], for which the IC50 in assay [1] is below 0.05 µM.

For `CN1CCN(Cc2ccc(NC(=O)Nc3ccc(Oc4ccnc5[nH]cc(Cl)c45)cn3)cc2C(F)(F)F)CC1` [Example I-24, 1-(5-((3-chloro-1H-pyrrolo[2,3-b]pyridin-4-yl)oxy)pyridin-2-yl)-3-(4-((4-methylpiperazin-1-yl)methyl)-3-(trifluoromethyl)phenyl)urea], the IC50 is below 0.2 µM in assay [2] and below 0.05 µM in assay [1].

In the case of `Cc1c[nH]c2nccc(Oc3ccc(NC(=O)Nc4ccc(CN5CCN(C)CC5)c(C(F)(F)F)c4)c(F)c3)c12` [Example I-36, 1-(2-fluoro-4-((3-methyl-1H-pyrrolo[2,3-b]pyridin-4-yl)oxy)phenyl)-3-(4-((4-methylpiperazin-1-yl)methyl)-3-(trifluoromethyl)phenyl)urea], the values for the IC50 in assay [2] and in assay [1] were 0.2 to 0.5 µM and 0.05 to 0.25 µM, respectively. In the case of `CCN1CCN(Cc2ccc(NC(=O)Nc3ccc(Oc4ccnc5[nH]cc(Cl)c45)cc3F)cc2C(F)(F)F)CC1` [Example I-37, 1-(4-((3-chloro-1H-pyrrolo[2,3-b]pyridin-4-yl)oxy)-2-fluorophenyl)-3-(4-((4-ethylpiperazin-1-yl)methyl)-3-(trifluoromethyl)phenyl)urea], the IC50 in assay [1] was below 0.05 µM. As for `CN1CCC(Oc2ccc(NC(=O)Nc3ccc(Oc4ccnc5[nH]cc(Cl)c45)cc3F)cc2C(F)(F)F)CC1` [Example I-39, 1-(4-((3-chloro-1H-pyrrolo[2,3-b]pyridin-4-yl)oxy)-2-fluorophenyl)-3-(4-((1-methylpiperidin-4-yl)oxy)-3-(trifluoromethyl)phenyl)urea], the IC50 lay in the range of 0.2 to 0.5 µM in assay [2] and 0.05 to 0.25 µM in assay [1].

For the molecule `CN1CCC(=Cc2ccc(NC(=O)Nc3ccc(Oc4ccnc5[nH]cc(Cl)c45)cc3F)cc2C(F)(F)F)CC1` [Example I-40, 1-(4-((3-chloro-1H-pyrrolo[2,3-b]pyridin-4-yl)oxy)-2-fluorophenyl)-3-(4-((1-methylpiperidin-4-ylidene)methyl)-3-(trifluoromethyl)phenyl)urea], the IC50 in assay [2] is 0.5 to 2 µM; in assay [1], below 0.05 µM. On the same counts, the results for `CN1CCC(Oc2ncc(NC(=O)Nc3ccc(Oc4ccnc5[nH]cc(Cl)c45)cc3F)cc2C(F)(F)F)CC1` [Example I-58, 1-(4-((3-chloro-1H-pyrrolo[2,3-b]pyridin-4-yl)oxy)-2-fluorophenyl)-3-(6-((1-methylpiperidin-4-yl)oxy)-5-(trifluoromethyl)pyridin-3-yl)urea] are 0.2 to 0.5 µM and 0.05 to 0.25 µM. With `CC(=O)N1CCC(Oc2ccc(NC(=O)Nc3ccc(Oc4ccnc5[nH]cc(Cl)c45)cc3F)cc2C(F)(F)F)CC1` [Example I-59, 1-(4-((1-acetylpiperidin-4-yl)oxy)-3-(trifluoromethyl)phenyl)-3-(4-((3-chloro-1H-pyrrolo[2,3-b]pyridin-4-yl)oxy)-2-fluorophenyl)urea], the half-maximal inhibitory concentration (IC50) in assay [2] was above 2 µM; in assay [1] it was 0.25 to 1 µM.

Source of the values: patent US20250177382A1, “NEK7 INHIBITORS” (Halia Therapeutics, Inc., priority 2021, published 2025).
